Here are results for seven compounds from patent US12685315B2, “Herbicidal combination” (UPL do Brasil Industria e Comercio de Insumos Agropecuarios …, priority 2019, dated 2026).

Assay [1] concerns yellow nutsedge. In words: Field trial, post emergence, efficacy on yellow nutsedge (Blacksburg, VA). The assay is classed as in vivo, Cyperus esculentus. The conditions noted are these: 2-way mixes 0.5X, 3-way mix 0.33X; for Yellow nut sedge at 29 DAT (Percentage weed cover): dosage: singles 1X; for Yellow nut sedge at 29 DAT (Percentage Control): post emergence, dosage: singles 1 X. As for the experimental part:
A field trial was conducted to evaluate effectiveness of the combinations of three active ingredients according to the invention when used post emergence, at different rates, compared to industry standards—stand alone and 2 way mixture molecules for efficacy of yellow nutsedge. The active ingredient combination used in the trial was bentazon+halosulfuron+sulfentrazone. The trial was conducted in Blacksburg, VA and was initiated on June 6 under given protocol. The plots were in fallow area primarily covered with yellow nutsedge and tall fescue and were sprayed at 4 week intervals. (2 applications total). The application dosages of the herbicides, when used in isolation and when used in the combinations were as follows: […]

In assay [2] the test system is Digitaria insularis. In words: Field trial of triple mixes of amicarbazone, post-emergence weed control. The conditions noted are these: dose g ai/ha: Amicarbazone 75, S-metolachlor 300, Atrazine 250, mix 75 + 300 + 250. Type of assay: in vivo. As for the experimental part:
(§1) Field trials were done to evaluate the efficacy and synergism of the triple mixes of amicarbazone with other herbicides for the control of weeds in pre and post-emergence application.
(§2) The composition of the present invention was applied. This test was performed for species of weeds: Grasses namely BRADC=Brachiaria decumbens, CCHEC=Cenchrus echinatus, ELEIN=Eleusine indica, TRCIN=Digitaria insularis and Broadleaves namely IAQGR=Ipomoea grandifolia, EPHHL=Euphorbia heterophylla, COMBE=Commelina benghalensis. Data were collected at various period after application of the composition to the soil and calculated.

For assay [3], the system named is Ipomoea grandifolia (IAQGR). Description: Field trial of triple mixes of amicarbazone, pre-emergence weed control. The assay is classed as in vivo. The protocol:
as §1, §2

Assay [4] has as its system Brachiaria decumbens (BRADC). In words: Field trial of triple mixes of amicarbazone, pre and post-emergence weed control. Type of assay: in vivo. The protocol:
as §1, §2

For assay [5], the system named is Cenchrus echinatus (CCHEC). The description is as above. Type of assay: in vivo. The protocol:
as §1, §2

For assay [6], the system named is Euphorbia heterophylla. In words: Field trial of triple mixes of amicarbazone, pre-emergence weed control. The conditions noted are these: dose g ai/ha: Amicarbazone 250, Sulfentrazone 150, Diuron 250, mix 250 + 150 + 250. Type of assay: in vivo. The protocol:
as §1, §2

Assay [7] concerns Eleusine indica. Description: Field trial of triple mixes of amicarbazone, pre and post-emergence weed control. The assay is classed as in vivo. The conditions noted are these: Table 8, dose g ai/ha: Amicarbazone 250, Sulfentrazone 150, Diuron 250, mix 250 + 150 + 250. As for the experimental part: as §1, §2
The mark [8] stands for this setting: Table 4, 7 DAA, dose g ai/ha: Amicarbazone 250, Clomazone 250, Diuron 250, mix 250 + 250 + 250.
Where [9] appears, read: Table 4, 14 DAA, dose g ai/ha: Amicarbazone 250, Clomazone 250, Diuron 250, mix 250 + 250 + 250.
Setting [10] is: Table 4, 28 DAA, dose g ai/ha: Amicarbazone 250, Clomazone 250, Diuron 250, mix 250 + 250 + 250.
[11] abbreviates: Table 5, Post-Emergence, 21 DAA, dose g ai/ha: Amicarbazone 250, Clomazone 250, Diuron 250, mix 250 + 250 + 250.
Setting [12] is: Table 5, Post-Emergence, 28 DAA, dose g ai/ha: Amicarbazone 250, Clomazone 250, Diuron 250, mix 250 + 250 + 250.
Setting [13] is: Table 5, Post-Emergence, 35 DAA, dose g ai/ha: Amicarbazone 250, Clomazone 250, Diuron 250, mix 250 + 250 + 250.
Setting [14] is: Table 5, Pre-Emergence, 21 DAA, dose g ai/ha: Amicarbazone 250, Clomazone 250, Diuron 250, mix 250 + 250 + 250.
The mark [15] stands for this setting: Table 5, Pre-Emergence, 28 DAA, dose g ai/ha: Amicarbazone 250, Clomazone 250, Diuron 250, mix 250 + 250 + 250.
The mark [16] stands for this setting: Table 5, Pre-Emergence, 35 DAA, dose g ai/ha: Amicarbazone 250, Clomazone 250, Diuron 250, mix 250 + 250 + 250.
The mark [17] stands for this setting: Table 6, Post-Emergence, 21 DAA, dose g ai/ha: Amicarbazone 250, Sulfentrazone 150, Diuron 250, mix 250 + 150 + 250.
The mark [18] stands for this setting: Table 6, Post-Emergence, 28 DAA, dose g ai/ha: Amicarbazone 250, Sulfentrazone 150, Diuron 250, mix 250 + 150 + 250.
The mark [19] stands for this setting: Table 6, Post-Emergence, 35 DAA, dose g ai/ha: Amicarbazone 250, Sulfentrazone 150, Diuron 250, mix 250 + 150 + 250.
Setting [20] is: Table 6, Pre-Emergence, 21 DAA, dose g ai/ha: Amicarbazone 250, Sulfentrazone 150, Diuron 250, mix 250 + 150 + 250.
Where [21] appears, read: Table 6, Pre-Emergence, 28 DAA, dose g ai/ha: Amicarbazone 250, Sulfentrazone 150, Diuron 250, mix 250 + 150 + 250.
[22] abbreviates: Table 6, Pre-Emergence, 35 DAA, dose g ai/ha: Amicarbazone 250, Sulfentrazone 150, Diuron 250, mix 250 + 150 + 250.

As for `CC(C)N1C(=O)c2ccccc2NS1(=O)=O` [Bentazone], the “Yellow nut sedge at 29 DAT (Percentage weed cover)” value in assay [1] (05/07, untreated 59) stood at 10%; in assay [1] (13/06, untreated 50), 40%; in assay [1] (20/6, untreated 49) it was 8%. Besides, the “Yellow nut sedge at 29 DAT (Percentage Control)” value in assay [1] (05/07) stood at 76%; in assay [1] (13/06) it was 65%; in assay [1] (20/6), 75%.
For the compound `CCc1cccc(C)c1N(C(=O)CCl)[C@@H](C)COC` [S-metolachlor], the “% Control” value in assay [2] (Table 9, 21 DAA) was determined as 0.0%; in assay [2] (Table 9, 28 DAA), 0.0%; in assay [2] (Table 9, 35 DAA), 0.0%.
`CS(=O)(=O)c1cc(C(F)(F)F)ccc1C(=O)c1cnoc1C1CC1` [Isoxaflutole]: the “% Control” value in assay [3] (Table 3, 14 DAA, dose g ai/ha: Amicarbazone 75, Isoxaflutole 15, Atrazine 250, mix 75 + 15 + 250) amounted to 15.0%; in assay [3] (Table 3, 21 DAA, dose g ai/ha: Amicarbazone 75, Isoxaflutole 15, Atrazine 250, mix 75 + 15 + 250), 0.0%; in assay [3] (Table 3, 28 DAA, dose g ai/ha: Amicarbazone 75, Isoxaflutole 15, Atrazine 250, mix 75 + 15 + 250), 0.0%; in assay [4] (Table 1, Post-Emergence, 7 DAA, dose g ai/ha: Amicarbazone 75, Isoxaflutole 15, Atrazine 250, mix 75 + 15 + 250), 66.3%; in assay [4] (Table 1, Post-Emergence, 21 DAA, dose g ai/ha: Amicarbazone 75, Isoxaflutole 15, Atrazine 250, mix 75 + 15 + 250), 65.0%; in assay [4] (Table 1, Post-Emergence, 28 DAA, dose g ai/ha: Amicarbazone 75, Isoxaflutole 15, Atrazine 250, mix 75 + 15 + 250) it was 68.8%. Besides, the “% Control” value in assay [4] (Table 1, Pre-Emergence, 7 DAA, dose g ai/ha: Amicarbazone 75, Isoxaflutole 15, Atrazine 250, mix 75 + 15 + 250) amounted to 86.3%; in assay [4] (Table 1, Pre-Emergence, 21 DAA, dose g ai/ha: Amicarbazone 75, Isoxaflutole 15, Atrazine 250, mix 75 + 15 + 250), 53.8%; in assay [4] (Table 1, Pre-Emergence, 28 DAA, dose g ai/ha: Amicarbazone 75, Isoxaflutole 15, Atrazine 250, mix 75 + 15 + 250), 50.0%; in assay [5] (Table 2, Post-Emergence, 7 DAA, dose g ai/ha: Amicarbazone 75, Isoxaflutole 15, Atrazine 250, mix 75 + 15 + 250) it was 68.8%; in assay [5] (Table 2, Post-Emergence, 28 DAA, dose g ai/ha: Amicarbazone 75, Isoxaflutole 15, Atrazine 250, mix 75 + 15 + 250), 91.3%; in assay [5] (Table 2, Post-Emergence, 35 DAA, dose g ai/ha: Amicarbazone 75, Isoxaflutole 15, Atrazine 250, mix 75 + 15 + 250), 93.3%.
As to `CC1(C)CON(Cc2ccccc2Cl)C1=O` [Clomazone], the “% Control” value in assay [3] (setting [8]) was 57.5%; in assay [3] (setting [9]), 41.3%; in assay [3] (setting [10]), 39.5%; in assay [4] (setting [11]), 71.3%; in assay [4] (setting [12]), 63.8%; in assay [4] (setting [13]) it was 61.3%. In addition, the figures for the “% Control” value in assay [4] (setting [14]), in assay [4] (setting [15]) and in assay [4] (setting [16]) were 89.5%, 86.5% and 86.3%, respectively.
Turning to `CN(C)C(=O)Nc1ccc(Cl)c(Cl)c1` [Diuron], the “% Control” value worked out at 10.0% in assay [3] (setting [8]); 0.0% in assay [3] (setting [9]); 0.0% in assay [3] (setting [10]); 0.0% in assay [6] (Table 7, 7 DAA); 0.0% in assay [6] (Table 7, 14 DAA); 0.0% in assay [6] (Table 7, 21 DAA). Also, the “% Control” value in assay [4] (setting [11]) is recorded as 81.3%; in assay [4] (setting [12]), 75.0%; in assay [4] (setting [13]), 76.3%; in assay [4] (setting [14]), 0.0%; in assay [4] (setting [15]), 0.0%; in assay [4] (setting [16]) it was 0.0%. Moreover, the “% Control” value in assay [7] (Post-Emergence, 14 DAA) was determined as 53.8%; in assay [7] (Post-Emergence, 21 DAA), 35.0%; in assay [7] (Post-Emergence, 28 DAA), 30.0%; in assay [7] (Pre-Emergence, 14 DAA), 0.0%; in assay [7] (Pre-Emergence, 21 DAA), 0.0%; in assay [7] (Pre-Emergence, 28 DAA) it was 0.0%. The “% Control” value in assay [5] (setting [17]) was 38.8%; in assay [5] (setting [18]), 35.0%; in assay [5] (setting [19]), 28.8%; in assay [5] (setting [20]), 0.0%; in assay [5] (setting [21]), 0.0%; in assay [5] (setting [22]), 0.0%.
Regarding `COc1cc(OC)nc(NC(=O)NS(=O)(=O)c2c(C(=O)O)c(Cl)nn2C)n1` [Halosulfuron], the “Yellow nut sedge at 29 DAT (Percentage weed cover)” value in assay [1] (05/07, untreated 59) is 8%; in assay [1] (13/06, untreated 50), 50%; in assay [1] (20/6, untreated 49) it was 16%. Besides, the entries for the “Yellow nut sedge at 29 DAT (Percentage Control)” value in assay [1] (05/07), in assay [1] (13/06) and in assay [1] (20/6) were 81%, 36% and 60%, respectively.
On to `Cc1nn(-c2cc(NS(C)(=O)=O)c(Cl)cc2Cl)c(=O)n1C(F)F` [Sulfentrazone], for which the “Yellow nut sedge at 29 DAT (Percentage weed cover)” value in assay [1] (05/07, untreated 59) is listed as 9%; in assay [1] (13/06, untreated 50) it was 44%; in assay [1] (20/6, untreated 49) it was 11%. The “Yellow nut sedge at 29 DAT (Percentage Control)” value in assay [1] (05/07) is reported as 75%; in assay [1] (13/06) it was 58%; in assay [1] (20/6), 73%. The “% Control” value was 0.0% in assay [6] (Table 7, 7 DAA); 10.0% in assay [6] (Table 7, 14 DAA); 17.5% in assay [6] (Table 7, 21 DAA); 70.0% in assay [7] (Post-Emergence, 14 DAA); 63.8% in assay [7] (Post-Emergence, 21 DAA); 55.0% in assay [7] (Post-Emergence, 28 DAA). Further, the “% Control” value in assay [7] (Pre-Emergence, 14 DAA) amounted to 93.3%; in assay [7] (Pre-Emergence, 21 DAA) it was 96.5%; in assay [7] (Pre-Emergence, 28 DAA), 92.0%; in assay [5] (setting [17]), 86.3%; in assay [5] (setting [18]) it was 83.8%; in assay [5] (setting [19]) it was 82.5%. Besides, the figures for the “% Control” value in assay [5] (setting [20]), in assay [5] (setting [21]) and in assay [5] (setting [22]) were 17.5%, 13.8% and 9.5%, respectively.
